Here are results for two molecules from ChEMBL document CHEMBL1156422 (J Biol Chem, 2007).

As a reminder, the IC50 is the concentration needed to halve the response being measured. Broadly, the inhibition is the drop in the measured response relative to a control, in per cent.

Test [1] deals with Serine/threonine-protein kinase PLK1 (Homo sapiens, UniProt P53350). Nature of the test: Inhibition of AX-7503 binding to recombinant Plk1 by Western blot. (A western blot detects proteins with antibodies after separation by electrophoresis.)
Sequence of Serine/threonine-protein kinase PLK1 (P53350 whole entry): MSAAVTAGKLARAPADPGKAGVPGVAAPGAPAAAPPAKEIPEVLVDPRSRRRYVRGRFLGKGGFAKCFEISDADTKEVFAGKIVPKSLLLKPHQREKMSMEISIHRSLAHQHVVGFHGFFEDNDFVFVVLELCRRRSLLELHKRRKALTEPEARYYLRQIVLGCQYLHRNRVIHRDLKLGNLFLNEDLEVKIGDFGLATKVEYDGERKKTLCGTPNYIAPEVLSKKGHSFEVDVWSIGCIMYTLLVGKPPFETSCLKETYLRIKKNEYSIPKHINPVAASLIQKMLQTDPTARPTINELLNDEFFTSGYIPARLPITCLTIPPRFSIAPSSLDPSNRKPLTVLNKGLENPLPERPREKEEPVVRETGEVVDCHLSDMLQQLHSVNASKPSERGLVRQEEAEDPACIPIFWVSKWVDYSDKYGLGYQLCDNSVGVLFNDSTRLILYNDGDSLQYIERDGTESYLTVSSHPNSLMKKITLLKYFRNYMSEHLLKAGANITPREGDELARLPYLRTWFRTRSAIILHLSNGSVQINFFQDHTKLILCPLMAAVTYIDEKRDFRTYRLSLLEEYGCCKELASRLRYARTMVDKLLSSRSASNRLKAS
Test [2] concerns the target T1, Serine/threonine-protein kinase PLK3 (Homo sapiens, UniProt Q9H4B4). Nature of the test: Inhibition of AX-7503 binding to recombinant Plk3 expressed in HeLa cells by Western blot. It counts as cell-based.
Target sequence in this assay (Q9H4B4 whole entry): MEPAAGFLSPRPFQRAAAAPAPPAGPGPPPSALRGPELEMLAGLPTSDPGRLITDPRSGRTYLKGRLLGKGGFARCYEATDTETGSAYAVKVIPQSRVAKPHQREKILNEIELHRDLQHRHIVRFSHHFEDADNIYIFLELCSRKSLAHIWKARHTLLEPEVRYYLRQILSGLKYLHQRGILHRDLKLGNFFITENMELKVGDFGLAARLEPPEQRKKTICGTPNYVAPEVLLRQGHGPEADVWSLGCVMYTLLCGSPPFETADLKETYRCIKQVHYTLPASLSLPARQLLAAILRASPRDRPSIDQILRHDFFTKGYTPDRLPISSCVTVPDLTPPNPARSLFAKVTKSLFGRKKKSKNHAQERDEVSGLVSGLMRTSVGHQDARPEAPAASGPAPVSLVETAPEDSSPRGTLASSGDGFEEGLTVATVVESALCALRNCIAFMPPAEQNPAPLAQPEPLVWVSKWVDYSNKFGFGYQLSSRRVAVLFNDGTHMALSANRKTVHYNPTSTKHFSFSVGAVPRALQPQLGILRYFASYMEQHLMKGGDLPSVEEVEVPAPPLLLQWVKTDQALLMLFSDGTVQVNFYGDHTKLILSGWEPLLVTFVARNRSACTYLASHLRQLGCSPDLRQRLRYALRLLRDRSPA
Test [3] has as its target T1, Serine/threonine-protein kinase PLK3. Nature of the test: Inhibition of recombinant Plk3 assessed as casein substrate phosphorylation.
Target sequence in this assay (Q9H4B4 whole entry): as above
For test [4] the target is unchanged. Nature of the test: Inhibition of Plk3 in human A549 cells assessed as casein substrate phosphorylation by Western blot. It counts as cell-based.
Target sequence in this assay (Q9H4B4 whole entry): as above
In test [5] the target is Serine/threonine-protein kinase PLK2 (Homo sapiens) (UniProt Q9NYY3). Nature of the test: Inhibition of AX-7503 binding to recombinant Plk2 at 1 uM by Western blot.
Sequence of Serine/threonine-protein kinase PLK2 (Homo sapiens) (Q9NYY3 whole entry, looked up): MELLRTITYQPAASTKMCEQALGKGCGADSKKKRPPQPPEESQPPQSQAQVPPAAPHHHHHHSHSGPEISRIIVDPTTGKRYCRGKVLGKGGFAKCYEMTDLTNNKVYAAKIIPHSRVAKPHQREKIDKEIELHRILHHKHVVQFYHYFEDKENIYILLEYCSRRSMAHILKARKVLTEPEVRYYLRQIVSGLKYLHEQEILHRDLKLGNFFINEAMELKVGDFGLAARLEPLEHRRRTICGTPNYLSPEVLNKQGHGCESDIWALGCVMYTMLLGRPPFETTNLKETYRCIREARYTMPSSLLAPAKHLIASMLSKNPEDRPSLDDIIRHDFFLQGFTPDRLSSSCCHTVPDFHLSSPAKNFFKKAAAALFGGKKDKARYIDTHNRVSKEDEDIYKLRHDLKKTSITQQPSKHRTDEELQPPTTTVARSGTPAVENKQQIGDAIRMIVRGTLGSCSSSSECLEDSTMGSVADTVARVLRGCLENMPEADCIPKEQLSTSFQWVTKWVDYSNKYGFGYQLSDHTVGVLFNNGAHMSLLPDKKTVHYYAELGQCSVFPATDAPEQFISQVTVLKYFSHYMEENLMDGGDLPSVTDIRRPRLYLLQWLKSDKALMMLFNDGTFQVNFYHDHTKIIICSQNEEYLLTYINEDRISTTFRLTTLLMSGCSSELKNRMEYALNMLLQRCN
For test [6], the target named is T1, Serine/threonine-protein kinase PLK3. Nature of the test: Inhibition of recombinant Plk3 expressed in human GM00637 cells at 1 uM assessed as decrease in p53 serine-20 phosphorylation. The test is classed as cell-based.
Target sequence in this assay (Q9H4B4 whole entry, looked up): as the sequence (Q9H4B4 whole entry) above
Test [7] has the same target. Nature of the test: Inhibition of recombinant Plk3 expressed in human GM00637 cells at 1 uM. The test is classed as cell-based.
Target sequence in this assay (Q9H4B4 whole entry, looked up): as the sequence (Q9H4B4 whole entry) above

Molecules are shown by their SMILES. Active and inactive are the calls of the source. No cut-off for these calls is given here.

Consider `O=c1cc(N2CCOCC2)oc2c(-c3ccccc3)cccc12` [LY-294002], for which the half-inhibitory concentration (IC50) in test [1] was 2.1 µM; in test [2], 3 µM; in test [3], 88 µM.

With `COC[C@H]1OC(=O)c2coc3c2[C@@]1(C)C1=C(C3=O)[C@@H]2CCC(=O)[C@@]2(C)C[C@H]1OC(C)=O` [WORTMANNIN], the figures for the IC50 in test [4], in test [2] and in test [3] were 0.22 µM, 0.049 µM and 0.048 µM, respectively. The outcome in test [5] and in test [6] was Active. Further, the inhibition in test [7] came out at 75%.
